PubChem BioAssay (NCI)
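How tested: cells in 96-well plates exposed to compound for 48 hours at five concentrations. TGI: concentration producing complete growth inhibition.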

Assays:
Assay in all cases: inhibition of tumour cell growth, NCI panel, 48 h
KM12 colon = system: KM12 colon
SW-620 colon = system: SW-620 colon
OVCAR-8 ovarian = system: OVCAR-8 ovarian
SK-MEL-28 melanoma = system: SK-MEL-28 melanoma
NCI-H460 lung = system: NCI-H460 lung
MCF7 breast = system: MCF7 breast
A549 NSCLC = system: A549 NSCLC
RXF 393 renal = system: RXF 393 renal
A498 renal = system: A498 renal
HOP-92 NSCLC = system: HOP-92 NSCLC
SK-MEL-5 melanoma = system: SK-MEL-5 melanoma
MDA-MB-231 breast = system: MDA-MB-231 breast
OVCAR-4 ovarian = system: OVCAR-4 ovarian
HS 578T breast = system: HS 578T breast

Compound | TGI (KM12 colon) | TGI (SW-620 colon) | TGI (OVCAR-8 ovarian) | TGI (SK-MEL-28 melanoma) | TGI (NCI-H460 lung) | TGI (MCF7 breast) | TGI (A549 NSCLC) | TGI (RXF 393 renal) | TGI (A498 renal) | TGI (HOP-92 NSCLC) | TGI (SK-MEL-5 melanoma) | TGI (MDA-MB-231 breast) | TGI (OVCAR-4 ovarian) | TGI (HS 578T breast)
CC(=O)Nc1nnc(S(C)(=O)=O)s1 | > 100 µM | > 100 µM | > 100 µM | > 100 µM | > 100 µM | > 100 µM | > 100 µM | > 100 µM | > 100 µM | > 100 µM | – | – | – | –
O=C(NCCNCCCNC(=O)c1cc(-c2ccccc2)nc2ccccc12)c1cccc(OCc2ccccc2)c1OCc1ccccc1 | 3.37 µM | 3.35 µM | 3.15 µM | 3.25 µM | 3.8 µM | 3.1 µM | 3.15 µM | – | 2.98 µM | 3.23 µM | 3.12 µM | 3.21 µM | 3.03 µM | –
CC(=O)NC1C(OCc2ccccc2)OC(COC(=O)CCCCCCCCCCNc2ccc([N+](=O)[O-])c3[nH]c4ccccc4c(=O)c23)C(O)C1OC(C)C(=O)NC(C)C(=O)NC(CCC(N)=O)C(=O)OCc1ccccc1 (centres undefined) | > 100 µM | > 100 µM | > 100 µM | > 100 µM | > 100 µM | – | > 100 µM | – | > 100 µM | – | > 100 µM | – | > 100 µM | –
COP(=O)(OC)C(O)CC(C)C (centres undefined) | > 100 µM | > 100 µM | – | > 100 µM | > 100 µM | > 100 µM | > 100 µM | > 100 µM | > 100 µM | – | > 100 µM | > 100 µM | > 100 µM | –
CSC12c3cc(C)n(-c4ccccc4)c3CC(C)(C)CN1C(=O)C2Oc1ccccc1 (centres undefined) | > 100 µM | > 100 µM | > 100 µM | > 100 µM | > 100 µM | > 100 µM | 86.4 µM | > 100 µM | > 100 µM | > 100 µM | > 100 µM | > 100 µM | > 100 µM | –
CC(OC(=O)C(CC(=O)OC(C)(C)C)NC(=O)OC(C)(C)C)C(=O)OCc1ccccc1 (centres undefined) | > 100 µM | > 100 µM | > 100 µM | > 100 µM | > 100 µM | > 100 µM | > 100 µM | > 100 µM | – | – | – | > 100 µM | > 100 µM | > 100 µM
COC(=O)C1(C(=O)OC)N=C(C)OC1/C=C/c1ccccc1 (centres undefined) | > 100 µM | > 100 µM | > 100 µM | > 100 µM | > 100 µM | > 100 µM | > 100 µM | > 100 µM | > 100 µM | > 100 µM | > 100 µM | – | > 100 µM | –
CSc1ncc2c(n1)sc1c(=O)n(-c3ccccc3)cnc12 | > 100 µM | > 100 µM | > 100 µM | > 100 µM | > 100 µM | – | > 100 µM | > 100 µM | > 100 µM | > 100 µM | > 100 µM | > 100 µM | > 100 µM | > 100 µM
COC(=O)/C=C/C1(O)C=CC(=O)C=C1 | 5.61 µM | – | > 100 µM | > 19.8 µM | > 61.7 µM | 13.2 µM | > 47.8 µM | > 25.1 µM | > 60.2 µM | > 32.1 µM | 17.6 µM | 5.37 µM | 15.6 µM | –
COC(=O)CCC(C)C1CCC2C3C(C[C@H](OC(C)=O)[C@]12C)[C@@]1(C)CCC2(C[C@H]1C[C@H]3OC(C)=O)OOC1(CC[C@]3(C)C4C[C@H](OC(C)=O)[C@]5(C)C(C(C)CCC(=O)OC)CCC5C4[C@H](OC(C)=O)C[C@@H]3C1)OO2 (some centres undefined) | > 100 µM | > 100 µM | > 100 µM | > 100 µM | > 100 µM | > 100 µM | > 100 µM | > 100 µM | – | – | > 100 µM | > 100 µM | > 100 µM | > 100 µM
Clc1ccc(-c2c(C3=NCCCN3)nnn2-c2ccccc2)cc1 | > 100 µM | 46.7 µM | > 100 µM | > 100 µM | > 100 µM | – | > 100 µM | > 100 µM | > 100 µM | > 100 µM | > 100 µM | – | > 100 µM | –
O=C1CSC(c2c[nH]c3ccccc23)N1c1ccccc1[N+](=O)[O-] (centres undefined) | > 100 µM | > 100 µM | > 100 µM | > 100 µM | > 100 µM | > 100 µM | > 100 µM | – | – | > 100 µM | > 100 µM | > 100 µM | > 100 µM | –
NN1C(=O)C(CCO)S/C1=N/N=C1/SC(CCO)C(=O)N1N (centres undefined) | > 100 µM | > 100 µM | > 100 µM | > 100 µM | > 100 µM | – | > 100 µM | > 100 µM | > 100 µM | > 100 µM | > 100 µM | – | > 100 µM | –
CC1C(OC2O[C@@H]3O[C@@]4(C)CC[C@H]5[C@H](C)CC[C@@H](C2C)[C@@]35O4)O[C@@H]2O[C@@]3(C)CC[C@H]4[C@H](C)CC[C@@H]1[C@@]24O3 (some centres undefined) | > 50 µM | > 50 µM | > 50 µM | > 50 µM | > 50 µM | > 50 µM | > 50 µM | – | > 50 µM | – | > 50 µM | > 50 µM | > 50 µM | > 50 µM
Cn1c(=O)sc2cc(C(=S)N3CCC(Cc4ccccc4)CC3)ccc21 | > 100 µM | > 100 µM | > 100 µM | > 100 µM | > 100 µM | > 100 µM | – | > 100 µM | > 100 µM | – | > 100 µM | > 100 µM | – | > 100 µM
Cc1c2ccncc2c(C)c2c1[nH]c1ccc(OCC(F)(F)F)cc12 | 2.79 µM | 1.99 µM | 2.59 µM | 3.15 µM | 2.46 µM | – | 3.3 µM | 3.46 µM | – | – | 3.35 µM | – | 3.48 µM | –
COc1ccc(C(=O)/C=C/c2ccc(OCCSCCCCCCCCCCSCCOc3ccc(/C=C/C(=O)c4ccc(OC)c(OC)c4)cc3)cc2)cc1OC | > 100 µM | > 100 µM | > 100 µM | > 100 µM | > 100 µM | > 100 µM | > 100 µM | – | > 100 µM | – | > 100 µM | > 100 µM | – | > 100 µM
O=C(/C(=C\c1ccc(Cl)cc1)c1ccccc1)c1ccccc1 | 74.3 µM | > 100 µM | > 100 µM | > 100 µM | > 100 µM | – | – | – | > 100 µM | > 100 µM | – | – | > 100 µM | –
COc1ccc(C(=O)C(c2ccc(OCc3ccccc3)cc2)c2ccc(OCc3ccccc3)cc2)cc1 | > 100 µM | > 100 µM | > 100 µM | > 100 µM | > 100 µM | – | > 100 µM | > 100 µM | – | > 100 µM | > 100 µM | – | > 100 µM | –
